From patent US20060058329A1, “Pyrazole inhibitors of the transforming growth factor” (priority 2003, published 2006)
pIC50: −log10 of the molar value.

What was measured:
[1] = system: TGF-β signalling (PAI-1 promoter-luciferase in HepG2 cells); experiment: Cellular transcriptional assay (PAI-1 promoter luciferase reporter, TGF-β stimulated); conditions: for pIC50: Homo sapiens, HepG2, read-out: TGF-β cellular activity (IC50)
Description: Assay 1 (Cellular Transcriptional Assay)
The assay was performed in HepG2 cells stably transfected with the PAI-1 promoter (known to be a strong TGF-β responsive promoter) linked to a luciferase (firefly) reporter gene. The compounds were selected on their ability to inhibit luciferase activity in cells exposed to TGF-β. In addition, cells were transfected with a second luciferase (Renilla) gene which was not driven by a TGF-β responsive promoter and was used as a toxicity control.
96 well microplates were seeded, using a multidrop apparatus, with the stably transfected cell line at a concentration of 35000 cells per well in 200 μl of serum-containing medium. These plates were placed in a cell incubator.
18 to 24 hours later (Day 2), cell-incubation procedure was launched. Cells were incubated with TGF-β and a candidate compound at concentrations in the range 50 nM to 10 μM (final concentration of DMSO 1%). The final concentration of TGF-β (rhTGFβ-1) used in the test was 1 ng/mL. […] The final volume of the test reaction was 150 μl. Each well contained only one candidate compound and its effect on the PAI-1 promoter was monitored.
Columns 11 and 12 were employed as controls. Column 11 contained 8 wells in which the cells were incubated in the presence of TGF-β, without a candidate compound. Column 11 was used to determine the ‘reference TGF-β induced firefly luciferase value’ against which values measured in the test wells (to quantify inhibitory activity) were compared. In wells A12 to D12, cells were grown in medium without TGF-β. […]
12 to 18 hours later (day 3), the luciferase quantification procedure was launched. […] Following agitation (15 to 30 mins), luciferase activities of the plates were read in a dual-injector luminometer (BMG lumistar). For this purpose, 50 μl of luciferase assay reagent and 50 μL of ‘Stop & Glo’ buffer were injected sequentially to quantify the activities of both luciferases. […] For each of the compounds tested, a concentration response curve was constructed from which an IC50 value was determined graphically.

[2] = target: T1, recombinant GST-ALK5 (residues 198-503) (Homo sapiens, UniProt P36897); experiment: Alk5 fluorescence polarization assay; type: binding; conditions: rhodamine green-labelled ligand 1 nM, ALK5 10 nM, read-out: ALK5 receptor modulator activity (IC50)
T1 construct: recombinant GST-ALK5 (residues 198-503)
T1 sequence (P36897 198-503): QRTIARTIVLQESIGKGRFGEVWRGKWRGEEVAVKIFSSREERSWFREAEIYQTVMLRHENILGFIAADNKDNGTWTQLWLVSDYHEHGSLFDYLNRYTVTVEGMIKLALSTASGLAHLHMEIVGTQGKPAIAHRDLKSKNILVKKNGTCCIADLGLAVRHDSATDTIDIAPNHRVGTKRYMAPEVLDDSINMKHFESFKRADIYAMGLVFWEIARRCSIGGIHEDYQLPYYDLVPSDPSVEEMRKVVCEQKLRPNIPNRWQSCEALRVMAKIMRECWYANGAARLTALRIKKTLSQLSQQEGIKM
Description: Assay 2 (Alk5 Fluorescence Polarization Assay)
Kinase inhibitor compounds conjugated to fluorophores, can be used as fluorescent ligands to monitor ATP competitive binding of other compounds to a given kinase. The increase in depolarization of plane polarized light, caused by release of the bound ligand into solution, is measured as a polarization/anisotropy value. This protocol details the use of a rhodamine green-labelled ligand for assays using recombinant GST-ALK5 (residues 198-503).
Assay buffer components: 62.5 mM Hepes pH 7.5 (Sigma H-4034), 1 mM DTT (Sigma D-0632), 12.5 mM MgCl2 (Sigma M-9272), 1.25 mM CHAPS (Sigma C-3023). […]
ALK5 was added to assay buffer containing the above components and 1 nM of the rhodamine green-labelled ligand so that the final ALK5 concentration was 10 nM based on active site titration of the enzyme. […] The plates were read immediately on a LJL Acquest fluorescence reader (Molecular Devices, serial number AQ1048) with excitation, emission, and dichroic filters of 485 nm, 530 nm, and 505 nm, respectively. The fluorescence polarization for each well was calculated by the Acquest reader and then imported into curve fitting software for construction of concentration response curves. The normalized response was determined relative to the high controls (1 μl DMSO in column 12, rows A-D) and the low controls (1 μl of control compound in column 12, rows E-H). […]

Row | Compound | melting point | firefly and renilla luciferase activities, relative to those obtained in column 11 (TGF-β only) ([1]; 500 μM CPO in the presence of TGF-β, toxicity control) | pIC50 [2] | pIC50 [1]
1 | CCN1CCN(C(=O)c2ccc(-c3cc(-c4[nH]ncc4-c4cccc(C)n4)ccn3)cc2)CC1 [Example 19, 3-[2-(4-((1-ethyl-piperazin-4-yl)carbonyl)phenyl)pyridin-4-yl]-4-[6-methylpyridin-2-yl]-1H-pyrazole] | 126 °C | – | – | –
2 | O=C1C=CCC1 [CPO, Cyclopentenone, reference compound] | – | around 50% | – | –
3 | Cc1cccc(-c2cn[nH]c2-c2ccnc(-c3ccc(OCC(=O)N4CCOCC4)cc3)c2)n1 [Example 23, 3-[2-(4-((morpholin-4-yl)carbonylmethyloxy)phenyl)pyridin-4-yl]-4-[6-methylpyridin-2-yl]-1H-pyrazole] | 170 °C | – | – | –
4 | Cc1cccc(-c2cn[nH]c2-c2ccnc(-c3ccc(OCCN4CCCC4)cc3)c2)n1 [Example 22, 3-[2-(4-(2-(pyrolidin-1-yl)ethoxy)phenyl)pyridin-4-yl]-4-[6-methylpyridin-2-yl]-1H-pyrazole] | 96 °C | – | 7.77 | 7.42
5 | Cc1cccc(-c2n[nH]cc2-c2ccnc(-c3ccc(OCc4cn(C)cn4)cc3)c2)n1 [Example 1, 2-{4-[(1-methyl-1H-imidazol-4-yl)methoxy]phenyl}-4-[3-(6-methylpyridin-2-yl)-1H-pyrazol-4-yl]pyridine] | – | – | 8.30 | 7.47
